Source: publication PMC8632988, “Inhibition of SYK and cSrc kinases can protect bone and cartilage in preclinical models of osteoarthritis and rheumatoid arthritis” (Scientific Reports, 2021)

What was measured:
Assay in all cases: Kinase selectivity profile assay
Type in all cases: biochemical
ULK1 = biological target: T1, ULK1 (Homo sapiens, UniProt O75385); conditions: 500 nM; relative to DMSO; read-out: Residual enzymatic activity
T1 construct: purchased Reaction Biology Corporation
Procedure, shortened: (§1)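 Radiometric kinase assay run by a standard protocol. Unbound phosphate was removed by washing filters in phosphoric acid, and product radioactivity gave percent remaining kinase activity versus DMSO vehicle reactions. Run in duplicate.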

CAMK2b = biological target: T2, CAMK2b (Homo sapiens, UniProt Q13554); conditions: 500 nM; relative to DMSO; read-out: Residual enzymatic activity
T2 construct: purchased Reaction Biology Corporation
Procedure, shortened: as §1

MAPKAPK5/PRAK = biological target: T3, MAPKAPK5/PRAK (Homo sapiens, UniProt Q8IW41); conditions: 500 nM; relative to DMSO; read-out: Residual enzymatic activity
T3 construct: purchased Reaction Biology Corporation
Procedure, shortened: as §1

EPHA5 = biological target: T4, EPHA5 (Homo sapiens, UniProt P54756); conditions: 500 nM, relative to DMSO
T4 construct: purchased Reaction Biology Corporation
Procedure, shortened: as §1

RSK3 = biological target: T5, RSK3 (Homo sapiens, UniProt Q15349); conditions: 500 nM; relative to DMSO; read-out: Residual enzymatic activity
T5 construct: purchased Reaction Biology Corporation
Procedure, shortened: as §1

EPHB3 = biological target: T6, EPHB3 (Homo sapiens, UniProt P54753); conditions: 500 nM, relative to DMSO
T6 construct: purchased Reaction Biology Corporation
Procedure, shortened: as §1

STK22D/TSSK1 = biological target: T7, STK22D/TSSK1 (Homo sapiens, UniProt Q9BXA7); conditions: for remaining activity at 0.5 µM: 500 nM, relative to DMSO, read-out: Residual enzymatic activity
T7 construct: purchased Reaction Biology Corporation (Malvern, PA, USA)
T7 sequence (Q9BXA7 1-367): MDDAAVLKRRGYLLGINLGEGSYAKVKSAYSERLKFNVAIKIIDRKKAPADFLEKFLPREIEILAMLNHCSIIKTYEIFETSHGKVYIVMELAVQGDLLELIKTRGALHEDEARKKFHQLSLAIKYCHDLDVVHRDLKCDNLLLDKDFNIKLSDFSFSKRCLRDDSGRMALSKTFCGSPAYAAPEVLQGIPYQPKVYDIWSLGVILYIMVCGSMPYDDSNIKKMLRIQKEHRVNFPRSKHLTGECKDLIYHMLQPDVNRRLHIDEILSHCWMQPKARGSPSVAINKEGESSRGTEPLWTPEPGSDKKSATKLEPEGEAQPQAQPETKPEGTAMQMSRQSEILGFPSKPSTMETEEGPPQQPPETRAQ
Procedure, shortened: as §1

ROCK2 = biological target: T8, ROCK2 (Homo sapiens, UniProt O75116); conditions: 500 nM; relative to DMSO; read-out: Residual enzymatic activity
T8 construct: purchased Reaction Biology Corporation
Procedure, shortened: as §1

TEC = biological target: T9, TEC (Homo sapiens, UniProt P42680); conditions: 500 nM; relative to DMSO; read-out: Residual enzymatic activity
T9 construct: purchased Reaction Biology Corporation
Procedure, shortened: as §1

PKCiota = biological target: T10, PKCiota (Homo sapiens, UniProt P41743); conditions: 500 nM; relative to DMSO; read-out: Residual enzymatic activity
T10 construct: purchased Reaction Biology Corporation
Procedure, shortened: as §1

EPHB4 = biological target: T11, EPHB4 (Homo sapiens, UniProt P54760); conditions: 500 nM, relative to DMSO; for remaining activity at 0.5 µM: read-out: Residual enzymatic activity
T11 construct: purchased Reaction Biology Corporation
T11 sequence (P54760 16-987): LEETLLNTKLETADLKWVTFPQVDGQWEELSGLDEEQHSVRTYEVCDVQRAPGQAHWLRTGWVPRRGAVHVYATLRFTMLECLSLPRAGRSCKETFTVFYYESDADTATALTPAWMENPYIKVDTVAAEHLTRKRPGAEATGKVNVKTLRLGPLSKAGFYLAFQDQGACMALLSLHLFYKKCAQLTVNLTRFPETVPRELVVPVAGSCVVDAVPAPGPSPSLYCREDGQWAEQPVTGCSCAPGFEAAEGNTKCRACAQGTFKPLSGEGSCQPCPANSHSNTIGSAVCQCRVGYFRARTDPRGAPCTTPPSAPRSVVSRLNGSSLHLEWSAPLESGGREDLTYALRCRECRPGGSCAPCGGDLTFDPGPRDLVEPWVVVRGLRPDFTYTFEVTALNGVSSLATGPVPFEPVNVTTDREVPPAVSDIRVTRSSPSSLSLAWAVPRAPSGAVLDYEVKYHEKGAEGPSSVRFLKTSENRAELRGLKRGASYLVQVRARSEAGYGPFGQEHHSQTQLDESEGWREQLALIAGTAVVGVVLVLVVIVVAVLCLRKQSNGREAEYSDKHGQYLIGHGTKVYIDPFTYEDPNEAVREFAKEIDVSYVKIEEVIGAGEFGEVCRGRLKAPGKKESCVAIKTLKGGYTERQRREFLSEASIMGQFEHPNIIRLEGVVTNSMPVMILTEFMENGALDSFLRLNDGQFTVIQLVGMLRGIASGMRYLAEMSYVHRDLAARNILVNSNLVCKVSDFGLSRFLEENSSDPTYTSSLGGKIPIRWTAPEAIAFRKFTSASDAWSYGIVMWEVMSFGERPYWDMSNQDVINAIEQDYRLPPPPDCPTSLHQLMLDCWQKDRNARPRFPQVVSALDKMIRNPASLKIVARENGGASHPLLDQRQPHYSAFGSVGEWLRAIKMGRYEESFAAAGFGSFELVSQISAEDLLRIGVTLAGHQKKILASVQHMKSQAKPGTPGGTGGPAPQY
Procedure, shortened: as §1

P38a/MAPK14 = biological target: T12, P38a/MAPK14 (Homo sapiens, UniProt Q16539); conditions: 500 nM; relative to DMSO; read-out: Residual enzymatic activity
T12 construct: purchased Reaction Biology Corporation
Procedure, shortened: as §1

GRK2 = biological target: T13, GRK2 (Homo sapiens, UniProt P25098); conditions: 500 nM; relative to DMSO; read-out: Residual enzymatic activity
T13 construct: purchased Reaction Biology Corporation
Procedure, shortened: as §1

PKAcb = biological target: T14, PKAcb (Homo sapiens, UniProt P22694); conditions: 500 nM; relative to DMSO; read-out: Residual enzymatic activity
T14 construct: purchased Reaction Biology Corporation
Procedure, shortened: as §1

BLK = biological target: T15, BLK (Homo sapiens, UniProt P51451); conditions: for remaining activity at 0.5 µM: 500 nM, relative to DMSO, read-out: Residual enzymatic activity
T15 construct: purchased Reaction Biology Corporation (assay service)
Procedure, shortened: as §1

TESK1 = biological target: T16, TESK1 (Homo sapiens, UniProt Q15569); conditions: 500 nM; relative to DMSO; read-out: Residual enzymatic activity
T16 construct: purchased Reaction Biology Corporation
Procedure, shortened: as §1

[1] = 10-dose mode, threefold serial dilution from 10 μM
[2] = read-out: Residual enzymatic activity

T15 sequence (P51451 whole entry): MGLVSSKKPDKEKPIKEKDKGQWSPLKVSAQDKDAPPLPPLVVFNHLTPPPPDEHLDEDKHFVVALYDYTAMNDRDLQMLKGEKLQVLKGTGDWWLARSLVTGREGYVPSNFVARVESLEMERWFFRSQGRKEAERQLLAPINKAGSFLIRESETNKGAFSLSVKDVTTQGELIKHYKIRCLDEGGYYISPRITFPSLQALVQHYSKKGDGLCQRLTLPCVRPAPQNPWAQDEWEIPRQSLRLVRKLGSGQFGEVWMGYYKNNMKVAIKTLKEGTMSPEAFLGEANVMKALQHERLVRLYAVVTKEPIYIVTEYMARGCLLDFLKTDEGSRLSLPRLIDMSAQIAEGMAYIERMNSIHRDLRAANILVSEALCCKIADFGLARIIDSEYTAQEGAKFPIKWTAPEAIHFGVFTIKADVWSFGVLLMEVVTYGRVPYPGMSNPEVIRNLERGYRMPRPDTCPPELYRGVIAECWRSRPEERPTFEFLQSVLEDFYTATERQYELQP
T5 sequence (Q15349 whole entry): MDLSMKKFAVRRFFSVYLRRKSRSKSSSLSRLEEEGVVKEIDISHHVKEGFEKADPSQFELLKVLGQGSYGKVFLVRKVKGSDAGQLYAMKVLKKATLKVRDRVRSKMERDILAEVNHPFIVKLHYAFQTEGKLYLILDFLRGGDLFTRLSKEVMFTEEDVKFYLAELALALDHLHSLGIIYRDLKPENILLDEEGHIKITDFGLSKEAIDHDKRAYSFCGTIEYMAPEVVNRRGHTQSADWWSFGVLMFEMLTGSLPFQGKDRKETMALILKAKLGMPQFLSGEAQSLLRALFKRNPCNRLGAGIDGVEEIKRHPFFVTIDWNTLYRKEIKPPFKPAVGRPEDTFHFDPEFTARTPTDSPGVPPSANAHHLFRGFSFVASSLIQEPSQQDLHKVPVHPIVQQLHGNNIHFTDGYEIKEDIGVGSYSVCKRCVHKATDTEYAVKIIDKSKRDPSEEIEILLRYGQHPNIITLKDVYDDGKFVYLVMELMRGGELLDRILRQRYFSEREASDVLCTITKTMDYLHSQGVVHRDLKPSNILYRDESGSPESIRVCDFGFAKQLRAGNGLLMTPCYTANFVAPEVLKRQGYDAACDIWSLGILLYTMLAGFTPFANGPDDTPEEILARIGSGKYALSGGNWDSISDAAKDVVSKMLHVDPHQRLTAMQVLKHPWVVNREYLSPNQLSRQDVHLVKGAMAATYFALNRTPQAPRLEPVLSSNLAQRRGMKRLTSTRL
T1 sequence (O75385 whole entry): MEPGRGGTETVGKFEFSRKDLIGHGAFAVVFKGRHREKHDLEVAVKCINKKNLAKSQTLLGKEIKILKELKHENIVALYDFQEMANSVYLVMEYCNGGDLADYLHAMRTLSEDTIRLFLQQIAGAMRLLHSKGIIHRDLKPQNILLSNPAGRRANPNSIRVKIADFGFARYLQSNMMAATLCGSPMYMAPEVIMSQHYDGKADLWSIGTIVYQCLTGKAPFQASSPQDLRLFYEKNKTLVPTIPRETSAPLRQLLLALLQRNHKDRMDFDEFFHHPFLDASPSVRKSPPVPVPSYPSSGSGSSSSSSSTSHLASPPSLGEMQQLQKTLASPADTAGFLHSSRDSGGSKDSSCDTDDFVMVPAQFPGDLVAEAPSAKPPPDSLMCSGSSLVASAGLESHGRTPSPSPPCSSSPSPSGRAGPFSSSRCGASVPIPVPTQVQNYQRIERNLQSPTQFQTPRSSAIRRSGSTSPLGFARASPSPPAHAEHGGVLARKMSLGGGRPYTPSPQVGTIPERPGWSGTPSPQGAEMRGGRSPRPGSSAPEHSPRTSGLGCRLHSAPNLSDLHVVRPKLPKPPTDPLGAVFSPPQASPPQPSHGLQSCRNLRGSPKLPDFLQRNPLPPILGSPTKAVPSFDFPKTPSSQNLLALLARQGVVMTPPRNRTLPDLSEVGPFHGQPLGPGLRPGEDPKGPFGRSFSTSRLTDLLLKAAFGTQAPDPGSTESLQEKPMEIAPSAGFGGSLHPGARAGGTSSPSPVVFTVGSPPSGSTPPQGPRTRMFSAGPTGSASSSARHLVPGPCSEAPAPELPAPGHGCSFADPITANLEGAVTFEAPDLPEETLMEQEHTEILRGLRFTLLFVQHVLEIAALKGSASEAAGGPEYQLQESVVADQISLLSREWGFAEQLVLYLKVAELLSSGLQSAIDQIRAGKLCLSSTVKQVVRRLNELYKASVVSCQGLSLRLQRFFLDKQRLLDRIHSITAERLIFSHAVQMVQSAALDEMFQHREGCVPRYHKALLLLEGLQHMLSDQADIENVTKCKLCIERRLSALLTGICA
T12 sequence (Q16539 whole entry): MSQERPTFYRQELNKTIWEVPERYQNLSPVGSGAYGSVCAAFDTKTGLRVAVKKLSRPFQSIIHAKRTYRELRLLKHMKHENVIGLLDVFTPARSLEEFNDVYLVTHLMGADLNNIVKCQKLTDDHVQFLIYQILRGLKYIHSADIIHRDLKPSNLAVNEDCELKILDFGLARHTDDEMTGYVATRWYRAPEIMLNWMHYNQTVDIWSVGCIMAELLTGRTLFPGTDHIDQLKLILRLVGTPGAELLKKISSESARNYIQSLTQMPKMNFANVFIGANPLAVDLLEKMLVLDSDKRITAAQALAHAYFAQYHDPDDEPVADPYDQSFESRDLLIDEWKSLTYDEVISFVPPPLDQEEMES
T6 sequence (P54753 34-998): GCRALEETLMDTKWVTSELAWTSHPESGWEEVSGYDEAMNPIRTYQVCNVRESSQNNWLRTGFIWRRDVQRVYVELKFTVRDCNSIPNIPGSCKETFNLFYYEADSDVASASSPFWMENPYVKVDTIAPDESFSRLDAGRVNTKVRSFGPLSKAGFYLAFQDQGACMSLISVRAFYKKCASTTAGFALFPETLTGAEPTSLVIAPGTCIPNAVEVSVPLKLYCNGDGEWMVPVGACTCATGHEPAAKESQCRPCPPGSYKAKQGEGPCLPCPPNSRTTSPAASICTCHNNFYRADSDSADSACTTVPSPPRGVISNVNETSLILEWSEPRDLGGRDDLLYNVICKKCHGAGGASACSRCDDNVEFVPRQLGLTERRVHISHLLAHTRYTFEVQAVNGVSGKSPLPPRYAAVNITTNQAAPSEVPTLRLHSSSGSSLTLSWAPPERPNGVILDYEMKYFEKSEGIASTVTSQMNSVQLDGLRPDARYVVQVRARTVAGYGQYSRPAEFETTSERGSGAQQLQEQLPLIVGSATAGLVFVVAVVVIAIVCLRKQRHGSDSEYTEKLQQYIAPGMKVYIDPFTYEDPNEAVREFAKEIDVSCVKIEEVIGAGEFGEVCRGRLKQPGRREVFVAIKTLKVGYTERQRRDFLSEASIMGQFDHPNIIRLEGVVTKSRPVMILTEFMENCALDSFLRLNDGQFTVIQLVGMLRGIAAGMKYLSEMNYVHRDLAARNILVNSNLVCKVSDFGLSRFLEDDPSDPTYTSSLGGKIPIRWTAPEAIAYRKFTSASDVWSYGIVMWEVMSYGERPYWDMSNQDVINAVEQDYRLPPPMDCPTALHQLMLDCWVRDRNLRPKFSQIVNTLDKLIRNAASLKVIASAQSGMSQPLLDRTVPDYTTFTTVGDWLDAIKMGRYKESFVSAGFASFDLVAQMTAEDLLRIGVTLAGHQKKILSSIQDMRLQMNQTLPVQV
T8 sequence (O75116 whole entry): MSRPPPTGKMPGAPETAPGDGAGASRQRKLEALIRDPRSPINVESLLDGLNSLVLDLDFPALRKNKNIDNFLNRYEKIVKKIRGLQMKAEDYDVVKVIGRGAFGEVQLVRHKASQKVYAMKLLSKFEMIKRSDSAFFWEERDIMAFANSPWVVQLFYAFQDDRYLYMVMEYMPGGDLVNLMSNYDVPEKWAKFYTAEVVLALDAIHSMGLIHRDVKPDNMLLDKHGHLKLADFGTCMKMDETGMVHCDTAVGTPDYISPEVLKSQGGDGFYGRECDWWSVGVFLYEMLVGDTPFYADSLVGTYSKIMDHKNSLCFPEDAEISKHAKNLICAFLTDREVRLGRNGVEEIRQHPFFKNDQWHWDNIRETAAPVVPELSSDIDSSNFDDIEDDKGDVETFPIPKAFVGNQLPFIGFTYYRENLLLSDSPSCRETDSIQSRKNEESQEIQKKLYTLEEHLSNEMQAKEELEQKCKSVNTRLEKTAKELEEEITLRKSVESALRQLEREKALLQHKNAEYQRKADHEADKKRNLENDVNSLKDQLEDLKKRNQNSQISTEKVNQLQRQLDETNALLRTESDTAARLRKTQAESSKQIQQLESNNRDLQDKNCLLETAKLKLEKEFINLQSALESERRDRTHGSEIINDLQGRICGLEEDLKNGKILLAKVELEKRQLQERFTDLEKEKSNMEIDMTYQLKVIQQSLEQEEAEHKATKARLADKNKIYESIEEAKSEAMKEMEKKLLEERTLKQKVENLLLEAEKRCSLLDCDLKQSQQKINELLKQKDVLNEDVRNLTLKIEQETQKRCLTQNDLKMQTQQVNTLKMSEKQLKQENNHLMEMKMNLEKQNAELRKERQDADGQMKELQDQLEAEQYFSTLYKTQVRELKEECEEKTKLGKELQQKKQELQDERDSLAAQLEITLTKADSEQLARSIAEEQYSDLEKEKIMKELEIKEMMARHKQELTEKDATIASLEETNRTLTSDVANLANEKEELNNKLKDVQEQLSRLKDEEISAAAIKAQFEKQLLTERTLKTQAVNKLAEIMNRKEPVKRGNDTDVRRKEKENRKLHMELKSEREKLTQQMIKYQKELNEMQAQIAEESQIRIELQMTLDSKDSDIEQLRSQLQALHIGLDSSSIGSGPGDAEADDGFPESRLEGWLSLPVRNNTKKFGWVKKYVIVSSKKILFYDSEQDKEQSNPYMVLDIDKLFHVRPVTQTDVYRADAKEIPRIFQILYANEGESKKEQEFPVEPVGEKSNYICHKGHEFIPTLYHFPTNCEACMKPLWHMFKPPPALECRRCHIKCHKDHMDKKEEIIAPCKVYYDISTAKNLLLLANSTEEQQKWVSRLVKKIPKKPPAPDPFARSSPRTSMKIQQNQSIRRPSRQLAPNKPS

## COc1cc(Nc2ncnc(Nc3cc4c(cn3)NC(=O)C(C)(C)O4)n2)cc(OC)c1OC [MT-SYK-03]
ULK1
  remaining activity at 0.5 µM: 62.2%
CAMK2b
  remaining activity at 0.5 µM: 97.7%
MAPKAPK5/PRAK
  remaining activity at 0.5 µM: 92.3%
EPHA5
  Residual enzymatic activity: 76.4%
RSK3
  remaining activity at 0.5 µM: 91.6%
EPHB3
  Residual enzymatic activity: 94.2%
STK22D/TSSK1
  remaining activity at 0.5 µM: 49.9%
STK22D/TSSK1; [1]
  IC50: 198 nM
ROCK2
  remaining activity at 0.5 µM: 91.1%
TEC
  remaining activity at 0.5 µM: 71%
PKCiota
  remaining activity at 0.5 µM: 102%
EPHB4
  Residual enzymatic activity: 64.6%
  remaining activity at 0.5 µM: > 54%
P38a/MAPK14
  remaining activity at 0.5 µM: 110%
GRK2
  remaining activity at 0.5 µM: 101%
PKAcb
  remaining activity at 0.5 µM: 98.4%
BLK
  remaining activity at 0.5 µM: 19.8%
BLK; [1]
  IC50: 9.6 nM
BLK; read-out: Inhibition at 500 nM
  inhibition at 0.5 µM: > 90%
TESK1
  remaining activity at 0.5 µM: 94.5%

## COc1cc(Nc2ncc(F)c(Nc3ccc4c(n3)NC(=O)C(C)(C)O4)n2)cc(OC)c1OC [R406, reference compound]
ULK1
  remaining activity at 0.5 µM: 8.8%
CAMK2b
  remaining activity at 0.5 µM: 95.8%
MAPKAPK5/PRAK
  remaining activity at 0.5 µM: 99.4%
EPHA5; [2]
  remaining activity at 0.5 µM: 60.9%
RSK3
  remaining activity at 0.5 µM: 52%
EPHB3; [2]
  remaining activity at 0.5 µM: 84.4%
STK22D/TSSK1
  remaining activity at 0.5 µM: 9.6%
ROCK2
  remaining activity at 0.5 µM: 77.6%
TEC
  remaining activity at 0.5 µM: 39.4%
PKCiota
  remaining activity at 0.5 µM: 103%
EPHB4
  remaining activity at 0.5 µM: 51.2%
P38a/MAPK14
  remaining activity at 0.5 µM: 99.9%
GRK2
  remaining activity at 0.5 µM: 97.2%
PKAcb
  remaining activity at 0.5 µM: 70.1%
BLK
  remaining activity at 0.5 µM: 16.7%
TESK1
  remaining activity at 0.5 µM: 85.7%
